These results are taken from ChEMBL document CHEMBL1201862, “PubChem BioAssay data set” (2004).

SMILES strings stand for the structures.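 All cell lines were grown in 96-well plates and treated with compound for 48 hours. GI50 is the concentration that inhibits growth by half.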 The source made the active and inactive calls. Rule as the data show it: active = GI50 up to about 1.1 µM and inactive = higher.

What all share (assay): NCI anticancer screen, dose series, 48 h
In assay [1] the test system is NCI-H460.
Assay [2] has as its system DU-145.
The test system of assay [3] is HL-60.
For assay [4], the system named is OVCAR-5.
Assay [5] deals with SNB-75.
In assay [6] the test system is T47D.
The test system of assay [7] is ACHN.
In assay [8] the test system is Hs-578T.
In assay [9] the test system is SK-MEL-2.
Assay [10] deals with MDA-MB-435.
Assay [11] relates to SF-268.
For assay [12], the system named is PC-3.
Assay [13] relates to U-251.
In assay [14] the test system is BT-549.
For assay [15], the system named is RPMI-8226.
The test system of assay [16] is MDA-MB-231.
The subject of assay [17] is SK-MEL-5.
Assay [18] relates to MCF7.
The test system of assay [19] is SW-620.
The subject of assay [20] is SK-OV-3.

For the compound `Cc1cc(=O)oc2c(CN(CCCl)CCCl)c(O)ccc12`, the GI50 in assay [1] is 17.4 µM (inactive); in assay [2] it was 36.5 µM (inactive); in assay [3], 4.3 µM (inactive); in assay [4], > 100 µM (inactive); in [5] it was 53.5 µM (inactive); in assay [6], 31.5 µM (inactive). In addition, the GI50 in assay [7] was 13.6 µM (inactive); in [8] it was 72.3 µM (inactive); in assay [9], > 100 µM (inactive); in [10], 57.3 µM (inactive); in [11], 59.3 µM (inactive); in [12] it was 44 µM (inactive). Moreover, the GI50 in assay [13] is 38.4 µM (inactive); in [14] it was 21.1 µM (inactive); in assay [15], 19.1 µM (inactive); in assay [16], > 100 µM (inactive); in assay [17], 16.6 µM (inactive); in assay [18] it was 11.4 µM (inactive). The GI50 in [19] was 14 µM (inactive).

As to `N#Cc1c(N)c2c(c(-c3ccccc3)c1-c1ccccc1)C(=O)N(NC(=S)Nc1ccccc1)C2=O`, the GI50 in assay [1] is 61.4 µM (inactive); in assay [2], > 100 µM (inactive); in [3] it was 37.9 µM (inactive); in assay [4], 35.2 µM (inactive); in [5], 65.2 µM (inactive); in [6], 48.2 µM (inactive). The GI50 in assay [7] was 94.2 µM (inactive); in assay [8], 39.4 µM (inactive); in [9], > 100 µM (inactive); in assay [10] it was > 100 µM (inactive); in [11] it was > 100 µM (inactive); in [12], 30.5 µM (inactive). Also, the GI50 was > 100 µM (inactive) in assay [13]; 89.5 µM (inactive) in [14]; 16.7 µM (inactive) in [15]; > 100 µM (inactive) in assay [16]; 43.1 µM (inactive) in assay [17]; 60.3 µM (inactive) in assay [18]. The GI50 in assay [19] was > 100 µM (inactive).

Turning to `CC(=O)OCC1OC(SC2=NC(=O)/C(=C/c3ccccc3)S2)C(OC(C)=O)C(OC(C)=O)C1OC(C)=O` (centres undefined), the GI50 in [1] is 42.2 µM (inactive); in assay [2] it was 95.1 µM (inactive); in assay [3] it was 14.5 µM (inactive); in assay [4], > 100 µM (inactive); in assay [5], 18.2 µM (inactive); in assay [6] it was 24.2 µM (inactive). For the same compound, the GI50 in assay [7] was 48.2 µM (inactive); in assay [20] it was 45.7 µM (inactive); in [8], 23.3 µM (inactive); in [9], 80.4 µM (inactive); in assay [10], 17 µM (inactive); in assay [11], 20.1 µM (inactive). The GI50 was 40.1 µM (inactive) in assay [12]; 30.9 µM (inactive) in assay [13]; 28.4 µM (inactive) in assay [14]; 24.4 µM (inactive) in assay [15]; 23.3 µM (inactive) in assay [16]; 18.8 µM (inactive) in assay [17]. Further, the GI50 in assay [18] is 18.9 µM (inactive); in assay [19], 23.8 µM (inactive).

`C=CC(=O)c1ccc2c(c1)OCCOCCOCCOCCOCCO2`: the GI50 in [1] is > 100 µM (inactive); in assay [2], > 100 µM (inactive); in [3], > 58.6 µM (inactive); in assay [4], 33.4 µM (inactive); in [5] it was > 49.3 µM (inactive); in assay [6] it was 29.3 µM (inactive). The GI50 in assay [7] was 17.7 µM (inactive); in assay [20] it was > 100 µM (inactive); in assay [8] it was > 100 µM (inactive); in assay [9], 30.5 µM (inactive); in assay [10], 19.5 µM (inactive); in assay [11], > 55.6 µM (inactive). Further, the GI50 in assay [12] is 30.9 µM (inactive); in assay [13], > 57.5 µM (inactive); in [14], 19.9 µM (inactive); in [15] it was > 38.8 µM (inactive); in assay [16] it was 21.3 µM (inactive); in assay [17] it was 58.7 µM (inactive). Moreover, the results for the GI50 in [18] and in assay [19] were 16 µM (inactive) and 18.8 µM (inactive), respectively.

For the compound `COC(=O)[C@H]1ON2O[C@H](OC3CCCC[C@@H]3c3ccccc3)C[C@@H]3CC[C@H]1[C@@]32C` (some centres undefined), the GI50 in assay [1] is > 100 µM (inactive); in assay [2] it was > 100 µM (inactive); in assay [3] it was 9.66 µM (inactive); in assay [4] it was > 100 µM (inactive); in assay [5], 36.4 µM (inactive); in [6], 46.5 µM (inactive). Also, the GI50 in assay [7] was > 100 µM (inactive); in assay [20], > 100 µM (inactive); in assay [8], > 100 µM (inactive); in [9] it was 84.5 µM (inactive); in assay [10], > 100 µM (inactive); in [11], > 100 µM (inactive). For the same compound, the GI50 in assay [12] was 47.6 µM (inactive); in assay [13] it was 77.6 µM (inactive); in assay [14] it was > 100 µM (inactive); in assay [15] it was 69.7 µM (inactive); in assay [16] it was > 100 µM (inactive); in assay [17], 56.4 µM (inactive). The GI50 in assay [18] was 65.6 µM (inactive); in [19], > 100 µM (inactive).

In the case of `CC(=O)NC1C(OCc2ccccc2)OC(CO)C(O)C1OC(C)C(=O)NC(C)C(=O)NC(CCC(=O)NCCCCNc1c2ccccc2nc2cccc([N+](=O)[O-])c12)C(N)=O` (centres undefined), the GI50 in assay [1] was 0.00445 µM (active); in assay [2] it was 0.00887 µM (active); in assay [3] it was 0.027 µM (active); in [4], 0.336 µM (active); in [5], 0.18 µM (active); in assay [6] it was 0.291 µM (active). Moreover, the GI50 in [7] is 0.0119 µM (active); in assay [20], 0.22 µM (active); in assay [8], 0.171 µM (active); in assay [9], 0.0944 µM (active); in assay [10] it was 0.0325 µM (active); in assay [11], 0.0357 µM (active). Moreover, the GI50 in assay [12] is 0.0989 µM (active); in [13], 0.042 µM (active); in assay [14], 0.196 µM (active); in [15], 0.0118 µM (active); in [16] it was 0.0237 µM (active); in assay [17], 0.0356 µM (active). The results for the GI50 in assay [18] and in assay [19] were 0.00995 µM (active) and 0.00741 µM (active), respectively.

On to `NNC(=O)CCCCCCCC(=O)O`, for which the GI50 in assay [1], in assay [2], in assay [3], in [4], in assay [5] and in [6] was > 100 µM (inactive) each time. The GI50 in assay [7], in [20], in assay [8], in assay [9], in assay [10] and in assay [12] was > 100 µM (inactive) each time. Besides, the GI50 in assay [13], in assay [14], in assay [15], in assay [16], in [17] and in assay [18] was > 100 µM (inactive) in each case. In assay [19], the GI50 was > 100 µM (inactive).

Consider `Cc1ccccc1S(=O)(=O)OC1NS(=O)(=O)c2ccccc21` (centres undefined), for which the GI50 in assay [1], in assay [2], in assay [4], in assay [5], in assay [6] and in assay [7] was > 100 µM (inactive) throughout. Besides, the GI50 in assay [20], in assay [8], in [9], in assay [10], in [11] and in assay [12] was > 100 µM (inactive) throughout. Further, the GI50 in assay [13], in [14], in assay [15], in [16], in assay [17] and in assay [18] was > 100 µM (inactive) throughout. Moreover, the GI50 in assay [19] was > 100 µM (inactive).

As to `CO[C@@H]1C=C[C@@]23c4cc5c(cc4C(O)N(CC2O)C3C1)OCO5` (some centres undefined), the GI50 was 2.84 µM (inactive) in assay [1]; 3.81 µM (inactive) in assay [2]; 1.8 µM (inactive) in assay [3]; 4.91 µM (inactive) in assay [4]; 2.82 µM (inactive) in [5]; 3.35 µM (inactive) in assay [6]. For the same compound, the GI50 in assay [7] was 3.33 µM (inactive); in assay [20] it was 3.66 µM (inactive); in assay [8] it was 22.6 µM (inactive); in assay [9], 2.99 µM (inactive); in [10], 3.06 µM (inactive); in assay [11], 7.36 µM (inactive). For the same compound, the GI50 was 3.56 µM (inactive) in assay [12]; 3.61 µM (inactive) in assay [13]; 2.98 µM (inactive) in [14]; 4.18 µM (inactive) in assay [15]; 3.87 µM (inactive) in assay [16]; 2.01 µM (inactive) in assay [17]. Besides, the GI50 in assay [18] is 1.98 µM (inactive); in assay [19] it was 4.33 µM (inactive).

On to `Cn1c(=O)c2c(ncn2CCCCOc2ccc3c(c2)[n+]([O-])nc(N)[n+]3[O-])n(C)c1=O`, for which the GI50 in assay [1] is 31 µM (inactive); in assay [2] it was 44.2 µM (inactive); in assay [3], 34.9 µM (inactive); in assay [5], 27.9 µM (inactive); in assay [6], 2.38 µM (inactive); in [20], 30.3 µM (inactive). Also, the GI50 is 22.9 µM (inactive) in assay [8]; 28.9 µM (inactive) in assay [9]; 11.8 µM (inactive) in assay [10]; 32.9 µM (inactive) in assay [11]; 21.3 µM (inactive) in [12]; 18.3 µM (inactive) in assay [13]. Also, the GI50 was 12.9 µM (inactive) in assay [14]; 30.5 µM (inactive) in assay [15]; 30.5 µM (inactive) in assay [16]; 9.38 µM (inactive) in assay [17]; 11.9 µM (inactive) in assay [18]; 39.6 µM (inactive) in [19].
